# pIC50: −log10 of the molar value.
# What was measured:
# [1] = target: T1, mouse PDGF-β receptor tyrosine kinase (Mus musculus, UniProt P05622); experiment: PDGF receptor tyrosine kinase assay (32P incorporation into glutamate-tyrosine co-polymer); assay type: biochemical; settings: read-out: PDGFr-TK IC50
# T1 construct: amplify a fragment of DNA that codes for the intracellular tyrosine kinase domain; made in house; host or cells: SF9 insect cells (baculovirus)
# Outline: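 32P transfer from γ32P-ATP (50 µM ATP) to poly(Glu,Tyr) 4:1 was measured over 10 min at 25°C and counted after TCA precipitation onto filters, minus the no-enzyme background. Enzyme was baculovirus/SF9 lysate of the kinase domain, preincubated 10 min with inhibitor in Hepes pH 7.0, MnCl2, vanadate.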
# [2] = system: PDGF receptor; experiment: PDGF receptor autophosphorylation in rat aorta smooth muscle cells; assay type: cell-based; settings: read-out: Inhibition of PDGF-Stimulated Receptor Auto Phosphorylation in Rat Aortic Smooth Muscle Cells (IC50); PDGF-BB 30 ng/mL for 5 minutes after 2 hours with compound
# Procedure: Rat aorta smooth muscle cells (RASMC) were isolated from the thoracic aorta of rats and explanted according to the method of Ross, J. Cell. Biol., 30:172-186 (1971). Cells were grown in Dulbecco's modified Eagle's medium (DMEM, Gibco) containing 10% fetal calf serum (FBS, Hyclone, Logan, Utah), 1% glutamine (Gibco) and 1% penicillin/streptomycin (Gibco). Cells were identified as smooth muscle cells by their "hill and valley" growth pattern and by fluorescent staining with a monoclonal antibody specific for SMC ∝-actin (Sigma). RASMC were used between passages 5 and 20 for all experiments. Test compounds were prepared in dimethylsulfoxide (DMSO) in order to achieve consistency in the vehicle and to ensure compound solubility. Appropriate DMSO controls were simultaneously evaluated with the test compounds.
# RASMC were grown to confluency in 100 mm dishes. Growth medium was removed and replaced with serum-free medium and cells were incubated at 37°C for an additional 24 hours. Test compounds were then added directly to the medium and cells incubated for an additional 2 hours. After 2 hours, PDGF-BB was added at a final concentration of 30 ng/mL for 5 minutes at 37°C to stimulated autophosphorylation of the PDGF receptor. Following growth factor treatment, the medium was removed, and cells were washed with cold phosphate-buffered saline and immediately lysed with 1 mL of lysis buffer (50 mM HEPES[pH 7.5], 150 mM NaCl, 10% glycerol, 1% Triton X-100, 1 mM EDTA, 1 mMEGTA, 50 mM NaF, 1 mM sodium orthovanadate, 30 mM p-nitrophenyl phosphate, 10 mM sodium pyrophosphate, 1 mM phenylmethyl sulfonyl fluoride, 10 µg/mL aprotinin, and 10 µg/mL leupeptin). Lysates were centrifuged at 10,000 × g for 10 minutes. […] Following the incubation, protein-A-sepharose beads were added for 2 hours with continuous mixing, and immune complexes bound to the beads washed four times with 1 mL lysis wash buffer. Immune complexes were solubilized in 30 µL of Laemmli sample buffer and electrophoresed in 4-20% SDS polyacrylamide gels. Following electrophoresis, separated proteins were transferred to nitrocellulose and immunoblotted with anti-phosphotyrosine antiserum. […] IC50 values were generated from the densitometric data.
# T1 sequence (P05622 599-961 limits assumed): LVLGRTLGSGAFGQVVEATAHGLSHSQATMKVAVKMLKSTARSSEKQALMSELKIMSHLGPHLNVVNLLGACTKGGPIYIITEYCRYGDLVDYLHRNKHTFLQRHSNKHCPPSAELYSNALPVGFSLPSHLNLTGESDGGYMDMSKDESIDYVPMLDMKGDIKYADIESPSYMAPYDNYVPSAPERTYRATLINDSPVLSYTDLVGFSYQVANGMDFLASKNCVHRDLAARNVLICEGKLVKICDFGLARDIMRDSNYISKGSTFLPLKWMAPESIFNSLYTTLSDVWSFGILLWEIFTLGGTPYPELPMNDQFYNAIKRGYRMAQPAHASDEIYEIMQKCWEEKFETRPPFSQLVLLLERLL
compound,measurement,setting,value
"Cn1c(=O)c(-c2c(Cl)cccc2Cl)cc2cnc(Nc3ccccc3)nc21 [Example 54, 6-(2,6-Dichlorophenyl)-8-methyl-2-phenylamino-8H-pyrido[2,3-d]pyrimidin-7-one]",pIC50,[1],6.64
same,pIC50,[2],7.80

# — patent publication EP0823908B1, “PYRIDO[2,3-d]PYRIMIDINES FOR INHIBITING PROTEIN TYROSINE KINASE MEDIATED [sequence] PROLIFERATION” (Warner-Lambert Company LLC, priority 1995, dated 1996)
